Values quoted from earlier work in patent US20120149888A1, “SYNTHESIS OF ARA-2'-O-METHYL-NUCLEOSIDES, CORRESPONDING PHOSPHORAMIDITES AND OLIGONUCLEOTIDES INCORPORATING NOVEL MODIFICATIONS FOR BIOLOGICAL APPLICATION IN THERAPEUCTICS, DIAGNOSTICS, G- TETRAD FORMING OLIGONUCLEOTIDES AND APTAMERS” (priority 2009, published 2012).
“Also recorded” adds a separate entry of the source. Read-outs that look alike come from different tables or passages of the source.

Experiments:
[1] = rhesus monkey, in vivo
P815/FU = settings: 5-Fluorouracil-resistant P815/FU
L1210/CA = settings: 1β-D-Arabinofuranosylcytosine-resistant L1210/CA
[2] = test system: ara-C-resistant neoplasms
[3] = test system: explants of intact rat colonic mucosa
Ehrlich ascites (AZU 1) = settings: 6-Azauracil-resistant Ehrlich ascites (AZU 1)
[4] = test system: Ehrlich ascites resistant to 5-fluorodeoxyuridine (FUdR); settings: 5-Fluorodeoxyuridine-resistant Ehrlich ascites
mouse leukemia L1210 = settings: L1210 cells
[5] = test system: human nasopharyngeal KB cells
[6] = test system: 36 human tumor cell lines
[7] = test system: 11 human tumor xenografts; settings: 11 xenografts
Ehrlich ascites (EAC-R2) = settings: 6-Methyl thiopurine ribonucleoside-resistant Ehrlich ascites (EAC-R2)
[8] = test system: nucleoside transport (thymidine uptake); settings: for Ki: read-out: Ki value for inhibition of thymidine uptake
[9] = test system: equilibrative NBMPR-sensitive nucleoside transporter (es); settings: growth-inhibitory concentrations
[10] = in vivo
ovarian cancer = settings: previously treated patients
[11] = 6-Mercaptopurine-resistant L1210/MP(III)
[12] = Thioguanine-resistant L1210 TG/R
[13] = 5-Fluorouracil-resistant P815-E176

Nc1ncn([C@@H]2O[C@H](CO)[C@@H](O)[C@@H]2O)c(=O)n1 [AAC, Arabinosyl-5-azacytosine]
CSF clearance exceeds the rate of CSF bulk flow [1]: 5 fold | greater CSF drug exposure, intrathecal or intraventricular versus systemic [1]: 50 fold | area under the CSF concentration x time curve, intraventricular 10 mg versus intravenous 200 mg/kg ([1]; 200 mg/kg): fifty fold | peak CSF concentration, intraventricular 10 mg versus intravenous 200 mg/kg ([1]; 200 mg/kg): one hundred | CSF clearance ([1]; icv or intrathecal, 10 mg): 0.2 mL/min

Nc1nc(=O)n([C@@H]2O[C@H](CO)[C@@H](O)[C@@H]2O)cc1F [Ara-FC, 1β-D-arabinofuranosyl-5-fluorocytosine]
Response to chemotherapeutic drugs: Same as parent line (P815/FU): Ara-FC | Response to chemotherapeutic drugs: Same as parent line (P815/FU; listed as ara-FC): retained the same sensitivity

O=NN(CCCl)C(=O)NCCCl [BCNU, 1,3-bis(2-chloroethyl)-1-nitrosourea]
Response to chemotherapeutic drugs: Same as parent line (L1210/CA): BCNU

COC(COC(N)=O)C1=C(N2CC2)C(=O)C(C)=C(N2CC2)C1=O (stereo not shown) [Carbazilquinone]
Response to chemotherapeutic drugs: collaterally sensitive (L1210/MP(III); mouse, in vivo): collateral sensitivity; also recorded: Carbazilquinone | Response to chemotherapeutic drugs: Same as parent line (L5178Y/ara-C; in vivo): Carbazilquinone | cross-resistance of ara-C-resistant neoplasms to the drug ([2]; in vivo): no cross-resistance

Nc1nc(N)c2c(Cl)c(CNc3ccc(C(=O)N[C@@H](CC(=O)O)C(=O)O)cc3)ccc2n1 [Chlorasquin]
Response to chemotherapeutic drugs: collaterally sensitive (L1210/MP(III); mouse, in vivo): Chlorasquin

O=c1[nH]c(=O)n([C@H]2C[C@H](O)[C@@H](CO)O2)cc1F [Compound 5-FUdR]
incorporation of tritiated TdR into DNA [3]: not altered | levels of tritiated deoxyuridine [3]: reduced

O=c1cnn([C@@H]2O[C@H](CO)[C@@H](O)[C@H]2O)c(=O)[nH]1 [Compound 6-Azauridine, 6-Azauridine]
Response to chemotherapeutic drugs: Cross-resistant (Ehrlich ascites (AZU 1)): 6-Azauridine | Response to chemotherapeutic drugs: Cross-resistant (Ehrlich ascites (AZU 1); listed as 6-azauridine): cross-resistant

O=c1[nH]c(=O)n([C@H]2C[C@H](O)[C@@H](CO)O2)cc1C(F)(F)F [Compound F3TdR, 5-trifluoromethyl-2′-deoxyuridine]
Response to chemotherapeutic drugs: Cross-resistant [4]: cross-resistant; also recorded: F3TdR

O=P1(N(CCCl)CCCl)NCCCO1 (stereo not shown) [Cytoxan]
Response to chemotherapeutic drugs: Same as parent line (L1210 TG/R; mouse, in vivo): no change in response; also recorded: Cytoxan | Response to chemotherapeutic drugs: Same as parent line (P815-E176; in vivo): no change in response; also recorded: Cytoxan | Response to chemotherapeutic drugs: Same as parent line (L5178Y/ara-C; in vivo): Cytoxan

CN(Cc1cnc2nc(N)[nH]c(=O)c2n1)c1c(Cl)cc(C(=O)NC(CCC(=O)O)C(=O)O)cc1Cl (stereo not shown) [DCM, 3′,5′-dichloromethopterin]
Response to chemotherapeutic drugs: Same as parent line (L1210/CA): DCM

C#C[C@@]1(O)[C@@H](CO)O[C@@H](n2ccc(=O)[nH]c2=O)[C@@H]1O [EUrd, 1-(3-C-ethynyl-beta-D-ribo-pentofuranosyl)uracil]
IC50 (mouse leukemia L1210): 130 nM | IC50 [5]: 29 nM | 1050 values [6]: nanomolar to micromolar range | human tumors with potent inhibition [7]: 8 of 11

Nc1ncnc2c([C@@H]3O[C@H](CO)[C@@H](O)[C@H]3O)[nH]nc12 [Formycin]
Response to chemotherapeutic drugs: Cross-resistant (Ehrlich ascites (EAC-R2)): Formycin

Nc1n[nH]c(N)n1 [Guanazole]
Response to chemotherapeutic drugs: Same as parent line (L1210/ara-C; in vivo): Guanazole TSC | cross-resistance of ara-C-resistant neoplasms to the drug ([2]; in vivo): no cross-resistance

CCOC(=O)NO [Hydroxycarbamic Acid ethyl ester]
Response to chemotherapeutic drugs: Same as parent line (L1210/CA): Hydroxycarbamic

N[C@@H](Cc1ccc(N(CCCl)CCCl)cc1)C(=O)O [L-PAM, L-phenylalanine mustard methanol]
Response to chemotherapeutic drugs: collaterally sensitive (L1210 TG/R; mouse, in vivo): L-PAM | Response to chemotherapeutic drugs: collaterally sensitive (P815-E176; in vivo): L-PAM

Cc1c(CNc2ccc(C(=O)N[C@@H](CC(=O)O)C(=O)O)cc2)ccc2ncnc(N)c12 [Methasquin]
Response to chemotherapeutic drugs: collaterally sensitive (L1210/MP(III); [11]): Methasquin

CN(Cc1cnc2nc(N)nc(N)c2n1)c1ccc(C(=O)N[C@@H](CCC(=O)O)C(=O)O)cc1 [Methotrexate]
Response to chemotherapeutic drugs: collaterally sensitive (L1210/MP(III); [11]): collaterally sensitive | Response to chemotherapeutic drugs: Same as parent line (L1210 TG/R; [12]): Methotrexate | Response to chemotherapeutic drugs: Same as parent line (L1210 TG/R; Thioguanine-resistant L1210 TG/R, listed as methotrexate): not altered | Response to chemotherapeutic drugs: Same as parent line (P815-E176; [13]): Methotrexate | Response to chemotherapeutic drugs: Same as parent line (L5178Y/ara-C; L5178Y/ara-C): Methotrexate

COCC(COc1nc(N2CCCCC2)c2nc(OCC(COC)OC)nc(N3CCCCC3)c2n1)OC (stereo not shown) [NU3059]
growth inhibitory activity of the TS inhibitor CB3717 (L1210 cells; analogue 10 microM): enhance

COc1ccc(CNc2nc(N(CCO)CCO)nc3c(NCc4ccc(OC)cc4)nc(N(CCO)CCO)nc23)cc1 [NU3076]
inhibition of thymidine uptake in the presence of AGP ([8]; AGP 5 mg ml(−1)): not significantly affected | Ki [8]: 100 nM | FU cytotoxicity (L1210 cells): significant potentiation | reduction of the LC90 of nolatrexed (L1210 cells): > threefold

NC(=S)NN=Cc1ccccn1 [TSC, pyridine-2-carboxaldehyde thiosemicarbazone]
Response to chemotherapeutic drugs: Same as parent line (L1210/ara-C; L1210/ara-C (Schabel et al., 1971)): Guanazole TSC | cross-resistance of ara-C-resistant neoplasms to the drug ([2]; several other ara-C-resistant neoplasms): no cross-resistance

Cc1cn([C@H]2C[C@H](O)[C@@H](CO)O2)c(=O)[nH]c1=O [TdR, Thymidine]
expression of es [9]: no significant effect

S=P(N1CC1)(N1CC1)N1CC1 [Thio-TEPA, triethylenethiophosphoramide]
Response to chemotherapeutic drugs: collaterally sensitive (L1210 TG/R; mouse, in vivo): Thio-TEPA | Response to chemotherapeutic drugs: Cross-resistant (P815-E176; in vivo): cross-resistance; also recorded: Thio-TEPA

Nc1nc2nc[nH]c2c(=S)[nH]1 [Thioguanine]
Response to chemotherapeutic drugs: Same as parent line (P815-E176; [13]): Thioguanine

C[C@@]1(CO)[C@H](O)CC[C@@]2(C)[C@H]1CC[C@H]1C[C@@H]3C[C@@]12CC[C@]3(O)CO [aphidicolin]
expression of es [9]: no significant increase

[N-]=[N+]=CC(=O)OC[C@H](N)C(=O)O [azaserine]
Response to chemotherapeutic drugs: collaterally sensitive (L1210/MP(III); [11]): collaterally sensitive | Response to chemotherapeutic drugs: Same as parent line (L1210 TG/R; [12]): not altered; also recorded: azaserine | Response to chemotherapeutic drugs: Same as parent line (P815-E176; [13]): Azaserine

OCCN(CCO)c1nc(N2CCCCC2)c2nc(N(CCO)CCO)nc(N3CCCCC3)c2n1 [dipyridamole]
Ki [8]: 280 nM | incorporation of tritiated TdR into DNA [3]: reduced | reduction of the LC90 of nolatrexed (L1210 cells; absence of salvageable thymidine): > threefold

CO[C@@]12[C@H](COC(N)=O)C3=C(C(=O)C(C)=C(N)C3=O)N1C[C@@H]1N[C@@H]12 [mitomycin C]
Response to chemotherapeutic drugs: collaterally sensitive (L1210/MP(III); mouse, in vivo): collaterally sensitive

NC(=O)c1csc([C@@H]2O[C@H](CO)[C@@H](O)[C@H]2O)n1 [tiazofurin, 2-B-D-Ribofuranosylthiazole-4-Carboxamide]
antitumor activity [10]: No antitumor activity was observed | dose limiting toxicities [10]: pericarditis and clinical symptoms suggestive of a more generalized serositis | maximally tolerated dose [10]: 1650 mg/m2 | patients with sustained depletion of guanine nucleotide pools [10]: 1 of 6

Neocarzinostatin
Response to chemotherapeutic drugs: collaterally sensitive (L1210/MP(III); mouse, in vivo): collateral sensitivity; also recorded: Neocarzinostatin

gemcitabine-cisplatin
response, doublets (ovarian cancer): 53%

B1: L-asparaginase: L-asparaginase, enzyme drug (protein, UniProt P00805 23-348, looked up)
L-asparaginase 2: LPNITILATGGTIAGGGDSATKSNYTVGKVGVENLVNAVPQLKDIANVKGEQVVNIGSQDMNDNVWLTLAKKINTDCDKTDGFVITHGTDTMEETAYFLDLTVKCDKPVVMVGAMRPSTSMSADGPFNLYNAVVTAADKASANRGVLVVMNDTVLDGRDVTKTNTTDVATFKSVNYGPLGYIHNGKIDYQRTPARKHTSDTPFDVSKLNELPKVGIVYNYANASDLPAKALVDAGYDGIVSAGVGNGNLYKSVFDTLATAAKTGTAVVRSSRVPTGATTQDAEVDDAKYGFVASGTLNPQKARVLLQLALTQTKDPQQIQQIFNQY
Response to chemotherapeutic drugs: Cross-resistant (L5178Y/ara-C; L5178Y/ara-C): L-asparaginase | Response to chemotherapeutic drugs: collaterally sensitive (L5178Y/ara-C; L5178Y/ara-C): collaterally sensitive
